Measured values reported in ChEMBL document CHEMBL1201862, “PubChem BioAssay data set” (2004).
Active and inactive are the calls of the source.

Key:
[1] = viability of uninfected HEp-2 cells – cell-based, HTS, cytotoxicity control for RSV inhibitor project, dose response (AID 2410); assay type: functional; details: human respiratory syncytial virus
[2] = decrease of insulin promoter-GFP reporter – imaging, high-content screening, mouse beta cells (AID 1628); assay type: functional; details: MIN6
[3] = MIN6 cell viability loss – mouse insulinoma, cytotoxicity control, dose response (AID 2122); assay type: functional;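 also: confirmatory high-throughput counterscreen run to flag cytotoxic compounds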
[4] = target: Induced myeloid leukemia cell differentiation protein Mcl-1 (Homo sapiens, UniProt Q07820); assay type: functional
[5] = target: T1, Endoribonuclease toxin MazF (Escherichia coli K-12, UniProt P0AE70); assay: activation of MazEF endoribonuclease cleavage – biochemical, fluorescence, single-stranded RNA substrate, uHTS hits, dose response (AID 588481); assay type: functional
T1 sequence (P0AE70 whole entry): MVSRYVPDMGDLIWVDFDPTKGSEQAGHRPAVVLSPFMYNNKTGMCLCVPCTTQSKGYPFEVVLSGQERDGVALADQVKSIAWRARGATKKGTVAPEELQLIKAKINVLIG

[6] = target: T1, Endoribonuclease toxin MazF; assay: substrate-only fluorescence increase artefacts – biochemical, single-stranded RNase substrate, counter-screen for MazEF activator project, dose response (AID 588502); assay type: functional
[7] = target: T2, Rac GTPase-activating protein 1 (Homo sapiens, UniProt Q9H0H5); assay: blockers of MgcRacGAP-driven Rac1 GTP hydrolysis – biochemical, ADP Hunter fluorescence, primary and confirmatory, confirmation (AID 624330); assay type: functional
T2 sequence (Q9H0H5 whole entry): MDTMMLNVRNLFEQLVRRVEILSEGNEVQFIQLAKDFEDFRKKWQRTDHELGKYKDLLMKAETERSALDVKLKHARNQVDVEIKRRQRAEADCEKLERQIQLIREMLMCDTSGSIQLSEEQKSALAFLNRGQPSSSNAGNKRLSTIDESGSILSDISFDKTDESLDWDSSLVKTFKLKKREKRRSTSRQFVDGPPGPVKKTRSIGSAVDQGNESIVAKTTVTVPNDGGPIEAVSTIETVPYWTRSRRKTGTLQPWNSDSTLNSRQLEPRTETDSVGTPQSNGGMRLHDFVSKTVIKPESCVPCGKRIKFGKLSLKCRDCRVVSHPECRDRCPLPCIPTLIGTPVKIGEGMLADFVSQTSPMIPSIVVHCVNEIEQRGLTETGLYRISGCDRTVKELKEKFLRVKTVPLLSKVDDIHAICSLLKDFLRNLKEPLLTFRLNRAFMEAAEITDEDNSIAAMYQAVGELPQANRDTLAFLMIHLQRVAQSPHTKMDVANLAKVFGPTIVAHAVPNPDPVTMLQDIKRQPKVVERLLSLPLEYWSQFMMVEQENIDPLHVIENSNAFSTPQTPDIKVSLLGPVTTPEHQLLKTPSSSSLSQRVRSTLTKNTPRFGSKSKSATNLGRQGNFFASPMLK

[8] = test system: Streptococcus sp. 'group A'; assay: Streptococcus pyogenes SK(-)GAS viability under kanamycin – luminescence, BacTiterGlo, confirmation, counter-screen for streptokinase expression inhibitor project, dose response (AID 1900); assay type: functional, organism-based
Streptococcus = assay: GAS UMAA2166 growth inhibition – luminescence, BacTiterGlo, counter-screen for streptokinase expression inhibitor project, dose response (AID 1915); assay type: functional, organism-based;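 also: potency for reduction of bacterial viability or growth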
[9] = Luminescence Cell-Based Dose Retest to Confirm Inhibitors of Cancer Stem Cells. [Related pubchem assays (depositor defined):AID2717, AID2721]; assay type: functional; details: Homo sapiens
HEK293 [10] = assay: EBV LMP1 TES2 canonical NF-kB signalling blockers – cell-based, HEK293, luciferase, cherry-pick, dose response (AID 588343); assay type: functional; details: Homo sapiens
Vero [11] = assay: cells; assay type: functional, cell-based; details: Chlorocebus sabaeus
INS1 = assay: INS-1E survival protection against cytokine death – cell-based, luminescence, retest, dose response (AID 449756); assay type: functional; details: Rattus norvegicus, INS1;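 also: cell death triggered by IL-1 beta plus TNF-alpha plus IFN-gamma mixture; protective hits raise ATP signal compared with cytokine alone wells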
Vero [12] = assay: cells; assay type: functional; details: Chlorocebus sabaeus
HEK293 [13] = assay: cells; details: Homo sapiens
HEK293 [14] = assay: cells; details: Homo sapiens; remark: listed apart in the source
[15] = target: T3, Tyrosine-protein phosphatase non-receptor type 7 (Homo sapiens, UniProt P35236); assay type: functional
T3 sequence (P35236 whole entry): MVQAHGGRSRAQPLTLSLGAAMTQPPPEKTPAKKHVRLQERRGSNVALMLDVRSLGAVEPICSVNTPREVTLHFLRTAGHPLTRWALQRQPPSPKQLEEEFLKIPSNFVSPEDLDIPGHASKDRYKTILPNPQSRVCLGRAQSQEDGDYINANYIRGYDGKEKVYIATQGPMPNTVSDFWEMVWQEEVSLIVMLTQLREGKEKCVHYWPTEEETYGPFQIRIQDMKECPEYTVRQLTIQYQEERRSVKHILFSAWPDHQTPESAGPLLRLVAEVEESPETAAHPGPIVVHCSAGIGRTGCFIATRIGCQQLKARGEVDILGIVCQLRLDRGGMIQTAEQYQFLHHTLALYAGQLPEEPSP

[16] = target: T4, Tyrosine-protein phosphatase non-receptor type 22 (Homo sapiens, UniProt Q9Y2R2); assay type: functional
T4 sequence (Q9Y2R2 whole entry): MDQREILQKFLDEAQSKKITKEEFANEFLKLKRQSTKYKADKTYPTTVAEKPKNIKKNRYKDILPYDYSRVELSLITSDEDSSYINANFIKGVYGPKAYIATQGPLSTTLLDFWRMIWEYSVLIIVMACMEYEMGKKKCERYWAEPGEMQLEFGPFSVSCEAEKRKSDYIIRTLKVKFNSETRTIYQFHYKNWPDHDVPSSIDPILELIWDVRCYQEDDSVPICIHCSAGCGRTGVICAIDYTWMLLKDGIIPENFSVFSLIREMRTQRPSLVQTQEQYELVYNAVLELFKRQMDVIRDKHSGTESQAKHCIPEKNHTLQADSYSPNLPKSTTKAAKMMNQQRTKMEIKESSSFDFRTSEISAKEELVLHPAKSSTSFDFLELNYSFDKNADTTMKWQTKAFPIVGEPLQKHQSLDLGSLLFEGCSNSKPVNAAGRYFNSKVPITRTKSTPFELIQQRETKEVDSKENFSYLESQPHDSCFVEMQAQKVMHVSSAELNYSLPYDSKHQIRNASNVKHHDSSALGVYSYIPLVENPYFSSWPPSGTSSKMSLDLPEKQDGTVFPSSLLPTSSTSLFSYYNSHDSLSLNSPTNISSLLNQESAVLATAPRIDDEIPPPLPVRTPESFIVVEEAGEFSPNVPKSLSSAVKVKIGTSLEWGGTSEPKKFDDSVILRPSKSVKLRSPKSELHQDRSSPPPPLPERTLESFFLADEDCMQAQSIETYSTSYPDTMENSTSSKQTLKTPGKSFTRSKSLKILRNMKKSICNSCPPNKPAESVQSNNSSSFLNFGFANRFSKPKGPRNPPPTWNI

[17] = target: T4, Tyrosine-protein phosphatase non-receptor type 22; assay type: functional; remark: listed apart in the source
[18] = target: UDP-galactopyranose mutase (Mycobacterium tuberculosis, UniProt P9WIQ1); assay: Inhibitors of Mycobacterium tuberculosis UDP-galactopyranose mutase (UGM) enzyme Measured in Biochemical System Using Plate Reader - 2105-02_Inhibitor_Dose_CherryPick_Activity. [Related pubchem assays (depositor defined):AID504439]
[19] = target: Sphingosine 1-phosphate receptor 5 (Homo sapiens, UniProt Q9H228); assay: Late stage counterscreen assay for S1P4 antagonists: Fluorescence dose response cell-based screening assay for antagonists of the Sphingosine 1-Phosphate Receptor 5 (S1P5). [Related pubchem assays (depositor defined):AID1510, AID1524, AID1692, AID1853, AID2332, AID489009, AID489017]; assay type: functional
[20] = target: Sphingosine 1-phosphate receptor 3 (Homo sapiens, UniProt Q99500); assay: Late stage counterscreen assay for S1P4 antagonists: Fluorescence dose response cell-based screening assay for antagonists of the Sphingosine 1-Phosphate Receptor 3 (S1P3). [Related pubchem assays (depositor defined):AID1510, AID1524, AID1692, AID1853, AID2332, AID489009, AID489017]; assay type: functional
[21] = target: Sphingosine 1-phosphate receptor 1 (Homo sapiens, UniProt P21453); assay: Late stage counterscreen assay for S1P4 antagonists: Fluorescence dose response cell-based screening assay for antagonists of the Sphingosine 1-Phosphate Receptor 1 (S1P1). [Related pubchem assays (depositor defined):AID1510, AID1524, AID1692, AID1853, AID2332, AID489009, AID489017]; assay type: functional
[22] = target: Sphingosine 1-phosphate receptor 2 (Homo sapiens, UniProt O95136); assay: Late stage counterscreen assay for S1P4 antagonists: Fluorescence dose response cell-based screening assay for antagonists of the Sphingosine 1-Phosphate Receptor 2 (S1P2). [Related pubchem assays (depositor defined):AID1510, AID1524, AID1692, AID1853, AID2332, AID489009, AID489017]; assay type: functional
[23] = target: T5, Histone-lysine N-methyltransferase NSD2 (Homo sapiens, UniProt O96028); assay type: biochemical
T5 sequence (O96028 whole entry): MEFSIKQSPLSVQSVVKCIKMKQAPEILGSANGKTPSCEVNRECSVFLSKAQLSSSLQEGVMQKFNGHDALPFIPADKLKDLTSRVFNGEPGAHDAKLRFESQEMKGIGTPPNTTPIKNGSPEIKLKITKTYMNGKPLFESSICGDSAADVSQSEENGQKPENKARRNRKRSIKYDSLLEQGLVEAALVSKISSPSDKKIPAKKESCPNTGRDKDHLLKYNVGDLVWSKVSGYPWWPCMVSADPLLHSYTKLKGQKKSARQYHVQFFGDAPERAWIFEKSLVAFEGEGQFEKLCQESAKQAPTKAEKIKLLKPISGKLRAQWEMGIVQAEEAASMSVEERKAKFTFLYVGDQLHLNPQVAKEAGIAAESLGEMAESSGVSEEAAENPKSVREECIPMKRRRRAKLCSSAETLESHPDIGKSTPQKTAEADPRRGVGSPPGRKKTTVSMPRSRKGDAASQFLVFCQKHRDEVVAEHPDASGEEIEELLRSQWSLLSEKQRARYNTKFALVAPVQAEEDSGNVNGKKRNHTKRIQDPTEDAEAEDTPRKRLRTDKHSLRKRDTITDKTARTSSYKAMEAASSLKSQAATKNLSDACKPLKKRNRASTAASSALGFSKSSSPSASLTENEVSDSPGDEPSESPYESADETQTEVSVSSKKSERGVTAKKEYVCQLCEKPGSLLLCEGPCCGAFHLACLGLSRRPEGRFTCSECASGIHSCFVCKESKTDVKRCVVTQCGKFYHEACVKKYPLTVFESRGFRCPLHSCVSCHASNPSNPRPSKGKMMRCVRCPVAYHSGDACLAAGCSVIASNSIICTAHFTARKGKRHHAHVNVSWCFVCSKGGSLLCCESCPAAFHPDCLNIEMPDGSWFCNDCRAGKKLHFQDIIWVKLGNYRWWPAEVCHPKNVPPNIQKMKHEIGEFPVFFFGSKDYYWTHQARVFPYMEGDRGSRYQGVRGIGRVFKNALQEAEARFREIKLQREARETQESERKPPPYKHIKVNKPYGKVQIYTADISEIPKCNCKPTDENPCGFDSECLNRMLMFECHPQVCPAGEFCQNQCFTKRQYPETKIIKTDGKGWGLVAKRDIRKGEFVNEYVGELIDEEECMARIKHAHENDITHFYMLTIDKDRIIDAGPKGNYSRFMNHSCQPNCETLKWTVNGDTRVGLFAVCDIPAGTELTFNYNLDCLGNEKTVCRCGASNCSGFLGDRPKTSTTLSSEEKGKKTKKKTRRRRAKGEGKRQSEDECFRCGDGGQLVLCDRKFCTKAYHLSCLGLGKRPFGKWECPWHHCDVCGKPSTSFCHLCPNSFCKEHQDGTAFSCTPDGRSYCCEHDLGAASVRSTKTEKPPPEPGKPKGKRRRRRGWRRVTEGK

[24] = target: Bifunctional protein GlmU (Mycobacterium tuberculosis, UniProt P9WMN3); assay: Inhibitors of Mycobacterial Glucosamine-1-phosphate acetyl transferase (GlmU). Secondary screen.; set-up: species or system Mycobacterium tuberculosis H37Rv
[25] = target: Neurotensin receptor type 1 (Homo sapiens, UniProt P30989); assay type: functional;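 also: Image-based confirmatory dose-response assay measuring agonist activity at NTR1; NTR1-expressing U2OS osteosarcoma cells imaged for beta-arrestin GFP spot formation; agonist potency where compounds increase beta-arrestin recruitment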
[26] = target: Lysine-specific demethylase 4C (Homo sapiens, UniProt Q9H3R0); assay: inhibition of JMJD2C H3K9me3 demethylation – biochemical, DELFIA europium, cherry-picked samples, dose response (AID 488835); assay type: functional
Genome polyprotein = Genome polyprotein (dengue virus type 2, UniProt P29990); assay: flavivirus cap methylation enzyme inhibition – biochemical, confirmation dose response, primary screen (AID 588689); assay type: functional
Genome polyprotein, sequence (P29990 2492-3391 limits assumed): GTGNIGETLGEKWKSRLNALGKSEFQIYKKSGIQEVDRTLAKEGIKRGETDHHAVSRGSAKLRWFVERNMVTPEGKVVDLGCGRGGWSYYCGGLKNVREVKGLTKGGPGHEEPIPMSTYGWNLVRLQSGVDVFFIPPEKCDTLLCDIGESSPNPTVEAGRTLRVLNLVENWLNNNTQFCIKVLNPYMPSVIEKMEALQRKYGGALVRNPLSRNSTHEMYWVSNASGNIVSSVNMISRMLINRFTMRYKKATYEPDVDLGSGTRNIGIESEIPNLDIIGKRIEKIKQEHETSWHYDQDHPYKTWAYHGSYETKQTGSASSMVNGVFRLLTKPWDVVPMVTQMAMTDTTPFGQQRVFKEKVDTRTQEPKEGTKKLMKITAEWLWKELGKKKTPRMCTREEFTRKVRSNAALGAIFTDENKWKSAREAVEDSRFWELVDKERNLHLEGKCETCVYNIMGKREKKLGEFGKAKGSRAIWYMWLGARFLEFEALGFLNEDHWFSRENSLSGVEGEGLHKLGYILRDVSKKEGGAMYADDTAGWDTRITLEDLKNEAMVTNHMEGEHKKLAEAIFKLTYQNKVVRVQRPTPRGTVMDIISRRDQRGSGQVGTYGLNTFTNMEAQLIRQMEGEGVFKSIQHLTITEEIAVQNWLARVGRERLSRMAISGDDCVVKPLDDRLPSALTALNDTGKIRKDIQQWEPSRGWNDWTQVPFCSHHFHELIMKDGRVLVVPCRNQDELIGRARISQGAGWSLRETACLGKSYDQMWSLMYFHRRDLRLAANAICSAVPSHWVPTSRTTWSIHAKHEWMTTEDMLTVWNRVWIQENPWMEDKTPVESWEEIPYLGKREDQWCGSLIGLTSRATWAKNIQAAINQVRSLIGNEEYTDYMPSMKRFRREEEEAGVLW

UDP-galactopyranose mutase, sequence (P9WIQ1 whole entry): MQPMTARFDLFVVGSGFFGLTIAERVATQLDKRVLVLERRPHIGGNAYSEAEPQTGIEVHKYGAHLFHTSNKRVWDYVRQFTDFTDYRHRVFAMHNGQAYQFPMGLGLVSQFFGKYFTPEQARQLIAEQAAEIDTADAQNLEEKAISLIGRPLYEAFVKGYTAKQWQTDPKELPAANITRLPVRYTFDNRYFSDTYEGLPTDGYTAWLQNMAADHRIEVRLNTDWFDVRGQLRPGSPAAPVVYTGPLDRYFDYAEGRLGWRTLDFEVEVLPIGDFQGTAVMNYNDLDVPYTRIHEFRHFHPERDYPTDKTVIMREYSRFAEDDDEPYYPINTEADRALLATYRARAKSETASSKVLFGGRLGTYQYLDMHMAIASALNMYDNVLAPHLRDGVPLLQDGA
Lysine-specific demethylase 4C, sequence (Q9H3R0 whole entry): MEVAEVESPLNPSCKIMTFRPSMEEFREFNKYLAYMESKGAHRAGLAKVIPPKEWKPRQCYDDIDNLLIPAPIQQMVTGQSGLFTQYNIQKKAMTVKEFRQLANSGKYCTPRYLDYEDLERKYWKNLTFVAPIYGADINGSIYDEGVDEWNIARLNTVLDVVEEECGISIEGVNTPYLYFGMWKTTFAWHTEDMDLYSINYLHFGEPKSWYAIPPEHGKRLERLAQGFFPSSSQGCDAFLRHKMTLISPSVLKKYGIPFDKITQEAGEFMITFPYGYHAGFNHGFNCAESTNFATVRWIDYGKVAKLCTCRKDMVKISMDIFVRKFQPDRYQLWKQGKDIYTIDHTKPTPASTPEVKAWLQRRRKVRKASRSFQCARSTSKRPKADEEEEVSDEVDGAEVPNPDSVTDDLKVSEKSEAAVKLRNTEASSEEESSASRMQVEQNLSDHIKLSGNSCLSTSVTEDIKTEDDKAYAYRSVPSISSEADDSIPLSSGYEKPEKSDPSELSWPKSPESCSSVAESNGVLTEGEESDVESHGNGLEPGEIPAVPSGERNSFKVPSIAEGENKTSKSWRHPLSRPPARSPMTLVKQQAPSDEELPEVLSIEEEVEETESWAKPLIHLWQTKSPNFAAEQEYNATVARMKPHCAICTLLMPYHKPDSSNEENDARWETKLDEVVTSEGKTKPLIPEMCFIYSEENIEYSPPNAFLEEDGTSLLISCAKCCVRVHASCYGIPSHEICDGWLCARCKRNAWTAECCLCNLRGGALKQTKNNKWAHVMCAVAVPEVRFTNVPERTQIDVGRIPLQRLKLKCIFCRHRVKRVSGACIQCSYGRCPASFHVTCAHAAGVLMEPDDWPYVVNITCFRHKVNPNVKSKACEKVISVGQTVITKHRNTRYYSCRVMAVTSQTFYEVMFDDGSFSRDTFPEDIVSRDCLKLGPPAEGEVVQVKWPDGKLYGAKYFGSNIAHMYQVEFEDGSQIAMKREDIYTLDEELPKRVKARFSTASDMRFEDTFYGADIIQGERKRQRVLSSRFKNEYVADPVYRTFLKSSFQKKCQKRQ
Sphingosine 1-phosphate receptor 3, sequence (Q99500 whole entry): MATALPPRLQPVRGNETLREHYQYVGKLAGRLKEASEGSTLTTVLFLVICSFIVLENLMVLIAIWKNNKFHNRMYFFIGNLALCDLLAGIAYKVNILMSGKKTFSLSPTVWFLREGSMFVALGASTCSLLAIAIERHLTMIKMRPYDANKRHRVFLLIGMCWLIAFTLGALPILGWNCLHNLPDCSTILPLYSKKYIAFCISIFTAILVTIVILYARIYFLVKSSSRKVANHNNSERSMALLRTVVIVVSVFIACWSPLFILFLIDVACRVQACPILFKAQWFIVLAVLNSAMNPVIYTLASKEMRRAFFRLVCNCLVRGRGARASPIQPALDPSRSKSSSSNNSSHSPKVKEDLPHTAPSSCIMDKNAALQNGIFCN
Sphingosine 1-phosphate receptor 2, sequence (O95136 whole entry): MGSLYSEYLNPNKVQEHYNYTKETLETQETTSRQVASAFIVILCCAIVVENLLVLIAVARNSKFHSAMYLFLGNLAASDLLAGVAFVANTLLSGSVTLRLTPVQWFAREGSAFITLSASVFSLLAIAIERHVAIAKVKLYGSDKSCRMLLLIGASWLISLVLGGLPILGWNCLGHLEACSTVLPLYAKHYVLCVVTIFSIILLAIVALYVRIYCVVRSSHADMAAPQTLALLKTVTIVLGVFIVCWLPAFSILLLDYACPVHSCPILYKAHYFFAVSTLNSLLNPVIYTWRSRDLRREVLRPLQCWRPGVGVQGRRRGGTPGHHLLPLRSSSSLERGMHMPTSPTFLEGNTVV
Sphingosine 1-phosphate receptor 5, sequence (Q9H228 whole entry): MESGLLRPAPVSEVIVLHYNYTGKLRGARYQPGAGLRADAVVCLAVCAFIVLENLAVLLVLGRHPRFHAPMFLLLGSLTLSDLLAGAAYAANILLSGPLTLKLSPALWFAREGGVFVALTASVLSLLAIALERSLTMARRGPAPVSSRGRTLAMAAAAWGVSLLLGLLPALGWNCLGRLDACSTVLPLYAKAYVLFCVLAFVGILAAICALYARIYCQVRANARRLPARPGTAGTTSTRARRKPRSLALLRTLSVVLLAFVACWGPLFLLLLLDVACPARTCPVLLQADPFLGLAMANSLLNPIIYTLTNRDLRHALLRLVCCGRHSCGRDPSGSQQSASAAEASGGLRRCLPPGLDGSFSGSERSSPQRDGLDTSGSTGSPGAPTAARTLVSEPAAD
Induced myeloid leukemia cell differentiation protein Mcl-1, sequence (Q07820 whole entry): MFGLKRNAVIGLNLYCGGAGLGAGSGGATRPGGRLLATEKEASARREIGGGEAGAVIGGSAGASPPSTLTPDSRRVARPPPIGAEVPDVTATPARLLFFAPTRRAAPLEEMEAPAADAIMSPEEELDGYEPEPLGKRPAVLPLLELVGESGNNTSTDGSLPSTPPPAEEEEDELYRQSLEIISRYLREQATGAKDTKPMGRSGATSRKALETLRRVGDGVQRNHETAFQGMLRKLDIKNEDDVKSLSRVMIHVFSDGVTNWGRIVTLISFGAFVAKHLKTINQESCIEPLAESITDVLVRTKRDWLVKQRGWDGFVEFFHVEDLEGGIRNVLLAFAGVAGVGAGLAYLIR
Neurotensin receptor type 1, sequence (P30989 whole entry): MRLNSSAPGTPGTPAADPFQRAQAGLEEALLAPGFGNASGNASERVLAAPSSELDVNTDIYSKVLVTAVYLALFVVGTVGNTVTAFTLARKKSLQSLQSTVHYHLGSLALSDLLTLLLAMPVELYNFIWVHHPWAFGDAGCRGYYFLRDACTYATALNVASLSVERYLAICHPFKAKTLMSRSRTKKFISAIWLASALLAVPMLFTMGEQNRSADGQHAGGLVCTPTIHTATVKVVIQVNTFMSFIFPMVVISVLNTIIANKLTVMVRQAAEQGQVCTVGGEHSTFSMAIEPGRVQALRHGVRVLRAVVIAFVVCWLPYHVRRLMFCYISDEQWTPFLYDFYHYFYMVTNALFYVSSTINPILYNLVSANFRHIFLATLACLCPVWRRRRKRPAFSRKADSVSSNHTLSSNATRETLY
Sphingosine 1-phosphate receptor 1, sequence (P21453 whole entry): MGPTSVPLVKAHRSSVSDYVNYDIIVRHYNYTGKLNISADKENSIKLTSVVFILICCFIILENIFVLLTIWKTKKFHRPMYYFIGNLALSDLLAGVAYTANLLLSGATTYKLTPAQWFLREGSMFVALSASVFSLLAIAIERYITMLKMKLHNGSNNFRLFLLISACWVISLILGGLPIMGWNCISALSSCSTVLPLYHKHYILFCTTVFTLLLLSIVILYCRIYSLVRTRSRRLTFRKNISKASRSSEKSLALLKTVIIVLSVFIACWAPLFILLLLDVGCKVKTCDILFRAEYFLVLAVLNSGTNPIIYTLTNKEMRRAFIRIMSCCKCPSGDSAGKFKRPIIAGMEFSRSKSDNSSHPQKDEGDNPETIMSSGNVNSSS

O=c1oc2ccccc2cc1-c1csc(Nc2ccc(O)cc2)n1
inactive: EC50 [5] > 99 µM | EC50 [6] > 99 µM
active: CC50 [1] > 50 µM | IC50 [2] 2.81 µM | IC50 [3] 4.07 µM | IC50 [4] 2.76 µM | IC50 [7] 70.1 µM

COc1ccc(O)c(/C=N/Nc2nc(Nc3ccccc3)nc(-n3nc(C)cc3C)n2)c1
inactive: EC50 (HEK293 [13]) > 59.6 µM | EC50 (HEK293 [14]) > 59.6 µM
active: IC50 [2] 1.67 µM | EC50 [8] 1.07 µM | IC50 [3] 0.878 µM | EC50 (Streptococcus) 2.16 µM | AC50 [9] 4.75 µM | AC50 (HEK293 [10]) 10.7 µM | IC50 (Vero [11]) > 12.5 µM | AC50 (INS1) 1.01 µM | CC50 (Vero [12]) 11.8 µM

COc1ccc(OC(C)C(=O)N2CC(C)OC(C)C2)cc1 (configuration not stated)
inactive: IC50 [15] > 79.4 µM | IC50 [16] > 79.4 µM | IC50 [17] > 79.4 µM

Oc1[nH]c2ccc(Br)cc2c1N=Nc1ccc(F)cc1
active: AC50 [18] 91.6 µM
inactive: EC50 [5] > 99 µM | EC50 [6] 45.8 µM

Cc1cccc(C)c1NC(=O)c1ccc(-c2cc(F)ccc2F)o1
inactive: IC50 [19] > 25 µM | IC50 [20] > 25 µM | IC50 [21] > 25 µM | IC50 [22] 16.9 µM

COc1ccc(-n2c(C)ccc2-c2ccccc2)cn1
active: AC50 [18] 58 µM
inactive: AC50 [23] > 20 µM

O=C1NC(=O)C(=Cc2ccc(Sc3ccccc3)o2)C(=O)N1
active: IC50 [24] 369 µM | EC50 [25] 11.2 µM | AC50 [26] 10.6 µM | IC50 (Genome polyprotein) > 100 µM

Cc1ccc(-n2c(=O)c3sccc3n(CC(=O)NCC3CCCO3)c2=O)cc1F (configuration not stated)
inactive: IC50 [15] > 79.4 µM | IC50 [16] > 79.4 µM | IC50 [17] > 79.4 µM
